In test [1] the test system is carrageenin-induced rat foot edema. Briefly: carrageenin-induced rat foot edema test. Particulars: 32 mg./kg. dose level, oral route; rat hind paw edema three hours after carrageenin injection. The test is classed as in vivo. The source says:
(§1) The novel 2-acetoxybenzoyl and ring-substituted α-arylpropionyl oxicam esters of the present invention are all readily adapted to therapeutic use as anti-arthritic agents. […] A. Winter et al., Proc. Soc. Exp. Biol. Med., Vol. 111, p. […] Additionally, hydrolysis of this novel product in vivo simultaneously produces two different anti-inflammatory compounds of known value (viz., piroxicam and ketoprofen). The other oxicam ester compounds of this invention also afford similar results.
In this test, anti-inflammatory activity is determined as the percent inhibition of edema formation in the hind paw of male albino rats (weighing 150-190g.) in response to a sub-plantar injection of carrageenin. The carrageenin is injected as a 1% aqueous suspension (0.015 ml.) one hour after oral administration of the drug, which is normally given in the form of an aqueous solution. Edema formation is then assessed by measuring the volume of the injected paw initially as well as three hours after the carrageenin injection. The increase in volume three hours after carrageenin injection constitutes the individual response. […]
(Carrageenan injected into the paw causes an acute inflammation.)

For test [2], the target named is lipoxygenase. The test is described as follows: lipoxygenase inhibition. The test is classed as biochemical.
Test [3] addresses cyclooxygenase (Homo sapiens, UniProt P23219). Briefly: cyclooxygenase inhibition. It counts as biochemical.
From the text: as §1

cyclooxygenase, sequence (P23219 24-599): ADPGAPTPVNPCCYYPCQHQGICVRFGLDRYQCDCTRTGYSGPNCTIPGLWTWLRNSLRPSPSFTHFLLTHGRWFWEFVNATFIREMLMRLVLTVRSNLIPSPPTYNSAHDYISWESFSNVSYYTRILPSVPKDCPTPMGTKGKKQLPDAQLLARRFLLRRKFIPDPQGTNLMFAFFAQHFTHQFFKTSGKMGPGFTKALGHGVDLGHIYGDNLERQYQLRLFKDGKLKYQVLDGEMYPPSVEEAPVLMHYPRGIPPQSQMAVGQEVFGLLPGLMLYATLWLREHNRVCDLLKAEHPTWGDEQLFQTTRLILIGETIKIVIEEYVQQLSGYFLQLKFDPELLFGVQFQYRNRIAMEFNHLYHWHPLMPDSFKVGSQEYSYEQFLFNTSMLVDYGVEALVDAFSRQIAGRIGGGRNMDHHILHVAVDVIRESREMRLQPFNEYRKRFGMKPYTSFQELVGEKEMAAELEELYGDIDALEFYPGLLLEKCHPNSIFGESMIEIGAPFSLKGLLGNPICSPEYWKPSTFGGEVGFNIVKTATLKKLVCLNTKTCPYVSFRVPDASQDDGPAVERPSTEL

By IC50 is commonly meant the point on the concentration scale where inhibition reaches its midpoint. Low readings indicate greater potency, high ones weaker potency. In the case of `CC(C(=O)OC1=C(C(=O)Nc2ccccn2)N(C)S(=O)(=O)c2ccccc21)c1cccc(C(=O)c2ccccc2)c1` (stereo not drawn) [Example 3, 4-[α-(3-benzoylphenyl)propionyloxy]-2-methyl-N-(2-pyridinyl)-2H-1,2-benzothiazine-3-carboxamide 1,1-dioxide], in test [1], the inhibition in swelling came out at 64%. In addition, the figures for the IC50 in test [2] and in test [3] were 0.02 µM and 10 µM, respectively.
